In US20060106098A1, “Andrographolide and its derivatives as TNF-alpha antagonists” (Advanced Gene Technology, Corp., priority 2004, published 2006):

Key:
TNFα = biological target: T1, TNFα (Homo sapiens, UniProt P01375); test: In vitro L929 cell proliferation/cytotoxicity assay, TNFα activity inhibition; type: cell-based; conditions: L929 cell line, TNFα 0.1 ng/ml, Act D 2 μg/ml; read-out: IC50 as TNFα antagonist
T1 construct: purchased
Method: (§1) In vitro L929 cell proliferation/cytotoxicity assay was performed on microtiter plates. L929 cells were cultured in Eagle's Minimal Essential Medium (EMEM) containing 10% bovine serum, 1% P/S and 1% non-essential amino acid. Confluent L929 cells were washed with 2 ml PBS solution and then trypsinized, followed by resuspending in complete medium. Two hundred μl cell suspension was aspirated for counting the cell density and the other suspension was centrifuged at 1500 rpm for 5 min. The supernatant was removed and the complete medium was added to dilute cells to a final concentration of 1.5×10^5 cells/ml. One hundred μl of cell suspension was added to each well in 96-well flat-bottomed microtiter plates and incubated for 24 hrs in 5% CO2 atmosphere at 37° C.
The chemical was resuspended in 1×PBS and sterilized with 0.22 μm filters. […]
(§2) The same samples as those for TNFα activity assay were added to the 96-well plate with the medium containing Act D to give the final concentration of Act D 2 μg/ml. […] 50 μl XTT (2,3-bis(2-methoxy-4-nitro-5-sulfophenyl)-5-[((phenylamino)carbonyl]-2H-tetra -zolium hydroxide) mixture was added to each well, and incubated for 4 hrs. Read with ELISA reader at O.D. 490/630 nm. Calculation of the TNFα Activity Inhabitation and Cytotoxicity [formula] [formula] 8. The Effect of the Methanolic Extract of A. Paniculata on L929 Cell Proliferation/Cytotoxicity Assay

L929 cells = test: Cytotoxicity on L929 cells (XTT, with Act D, without TNFα); type: cell-based; conditions: at the IC50 concentration (60 μM)
Method: as §1, §2

[1] = tested on: collagen-induced arthritis; test: Anti-inflammatory effect on rats with collagen-induced arthritis model; type: in vivo, SD rats; conditions: for histopathological slice of joint: rat with CIA
[2] = CIA rats, 3rd day after treatment stopped (T4)
[3] = CIA rats, 7th day after treatment stopped (T5)

T1 sequence (P01375 77-233 limits assumed): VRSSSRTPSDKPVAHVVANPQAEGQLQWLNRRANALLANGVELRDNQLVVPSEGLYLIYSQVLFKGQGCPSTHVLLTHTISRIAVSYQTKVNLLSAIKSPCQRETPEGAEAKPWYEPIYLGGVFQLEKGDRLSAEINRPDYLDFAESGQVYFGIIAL

C=C1CC[C@@H]2[C@](C)(CO)[C@H](O)CC[C@@]2(C)[C@@H]1C/C=C1/C(=O)OC[C@H]1O [andrographolide, Andrographolide]
IC50 (TNFα): 60 µM
cytotoxicity (L929 cells): No cytotocixity was found
decreased percentage of edema [1, 2]: 61.43%
decreased percentage of edema [1, 3]: 50.24%
decreased percentage of edema volume of hind paws ([1]; CIA rats, during the 7-day treatment (T3, 6th day of treatment)): 48.1%
histopathological slice of joint ([1]; treated IP): Proliferation of synovial lining cell and infiltration of erythrocytes and some lymphocytes were observed
histopathological slice of joint ([1]; treated by external application): Proliferation of synovial lining cell and loosely connective tissues appeared
histopathological slice of joint ([1]; treated by oral): Proliferation of synovial lining cell and infiltration of lymphocytes were found

C[C@@H]1C[C@H]2[C@@H]3CCC4=CC(=O)C=C[C@]4(C)[C@@]3(F)[C@@H](O)C[C@]2(C)[C@@]1(O)C(=O)CO [dexamethasone, Dexamethasone, reference compound]
decreased percentage of edema [1, 2]: 28.21%
decreased percentage of edema [1, 3]: 29.97%
